Here are results for 19 molecules from patent US11591311B2, “3-oxo-6-heteroaryl-2-phenyl-2,3-dihydropyridazine-4-carboxamides” (priority 2017, dated 2023).

The target in assay [1] is T1, AHR (Homo sapiens, UniProt P35869).
T1 construct: U87 glioblastoma cells (ATCC) endogenously expressing AHR; host or cells: U87 glioblastoma cells, stably transfected with DRE-firefly luciferase and renilla reporter constructs
T1 sequence (P35869 11-848): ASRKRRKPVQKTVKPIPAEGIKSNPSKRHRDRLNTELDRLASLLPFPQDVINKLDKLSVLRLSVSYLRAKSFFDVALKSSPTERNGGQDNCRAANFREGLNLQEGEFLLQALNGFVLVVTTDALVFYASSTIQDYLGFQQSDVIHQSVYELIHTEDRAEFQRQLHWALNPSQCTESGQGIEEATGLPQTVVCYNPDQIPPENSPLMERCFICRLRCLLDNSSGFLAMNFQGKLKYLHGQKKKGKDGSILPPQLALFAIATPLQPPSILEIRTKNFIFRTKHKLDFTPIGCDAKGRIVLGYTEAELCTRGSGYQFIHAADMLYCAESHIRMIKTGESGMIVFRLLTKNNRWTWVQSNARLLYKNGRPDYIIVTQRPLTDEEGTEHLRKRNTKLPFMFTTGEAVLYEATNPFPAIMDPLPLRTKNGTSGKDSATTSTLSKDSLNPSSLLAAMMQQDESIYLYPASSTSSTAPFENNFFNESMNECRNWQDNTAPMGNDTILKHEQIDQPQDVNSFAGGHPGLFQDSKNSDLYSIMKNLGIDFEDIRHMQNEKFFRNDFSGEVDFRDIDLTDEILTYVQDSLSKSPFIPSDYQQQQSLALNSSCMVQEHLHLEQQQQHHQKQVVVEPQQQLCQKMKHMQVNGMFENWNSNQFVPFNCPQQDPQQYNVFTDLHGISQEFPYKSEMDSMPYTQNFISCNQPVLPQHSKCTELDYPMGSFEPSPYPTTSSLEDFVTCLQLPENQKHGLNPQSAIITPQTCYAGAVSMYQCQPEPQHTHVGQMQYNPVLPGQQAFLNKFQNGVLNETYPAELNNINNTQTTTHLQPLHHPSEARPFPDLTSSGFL
Briefly: In vitro assay 1: AHR-luc transactivation assay, antagonism in human cell line (U87 glioblastoma cells prestimulated with kynurenic acid). The format is cell-based. As for the experimental part: Transactivation Assay in Human Cell Line (In Vitro Assays 1 and 2)
Transactivation assays were carried out in U87 glioblastoma cells (ATCC) endogenously expressing AHR. In addition the cells were stably transfected with an AHR inducible firefly luciferase reporter gene construct that carried AHR-binding sites (DRE) in its promoter and a renilla reporter gene construct with constitutively active promoter. Kynurenic acid is an endogenous AHR activating ligand and was used to prestimulate test cells prior to testing the antagonistic properties of compounds.
In Vitro Assay 1: Antagonism in Human Cell Line
Cells in medium (tryptophan free RPMI, 1% FCS, 2 mM Glutamine) supplemented with 150 μM kynurenic acid were grown for 20 hours in absence (negative control) or presence of increasing concentrations of test compounds (typical dilutions: 72 pmol/L, 0.25 nmol/L, 0.89 nmol/L; 3.1 nmol/L, 11 nmol/L, 38 nmol/L, 130 nmol/L, 470 nmol/L, 1.6 μmol/L, 5.7 μmol/L and 20 μmol/L in duplicates). As positive inhibition control cells supplemented with 150 μM kynurenic acid were incubated in presence of 5 μM Staurosporin. Normalization was done by positive and negative controls.
Firefly luciferase and Renilla activity was determined by the DualGlo Luciferase Assay System (Promega, #2920). Renilla activity was used to assess toxic effects of compounds.

Assay [2] deals with T1, AHR. Briefly: In vitro assay 3: AHR-regulated CYP1A1 expression in human cell line (U937, qPCR). In kind it is cell-based. The note with it: human monocytic U937 cells, CYP1A1 expression induced with 200 μM KA, 6 hours, quantitative PCR; read-out: Assay 3: Hum CYP1A1 Antagonism IC50. The method, then:
In Vitro Assay 3: AHR-Regulated CYP1A1 Expression in Human Cell Line
To assess the AHR inhibitory activity of the substances described in this application, the ability thereof to antagonise ligand-induced AHR gene regulation in a dose-dependent manner was quantified. For this purpose, quantitative PCR analysis was used to determine expression of the AHR-regulated gene CYP1A1 in a human monocytic U937 cell line upon stimulation with 200 μM KA in the presence and absence of AHR inhibitor. […] CYP1A1 expression was induced with 200 μM KA (positive control) in the presence or absence of the substances for 6 hours. Human U937 cells were typically incubated with eight different concentrations of the substances (1 nM, 3 nM, 10 nM, 30 nM, 100 nM, 300 nM, 1 μM and 3 μM) and analyzed in duplicate on the same microtitre plate. […] Unstimulated cells were used as the negative control. Taqman probes for human CYP1A1 (Hs01054797_g1) and human HPRT (Hs02800695_m1) were used to analyze fold expression of CYP1A1 of HPRT. Quantitation was performed on a Taqman SDS7900HT.

A word on the IC50: it is the point on the concentration scale where inhibition reaches its midpoint.

As for `C[C@@H](CO)NC(=O)c1cc(-c2ccc(C(F)(F)F)nc2)nn(-c2cc(F)cc(F)c2)c1=O` [Example 1, 2-(3,5-Difluorophenyl)-N-[(25)-1-hydroxypropan-2-yl]-3-oxo-6-[6-(trifluoromethyl)pyridin-3-yl]-2,3-dihydropyridazine-4-carboxamide], the concentration for half-maximal inhibition (IC50) was 7.14 nM at AHR [1] and 5.29 nM at AHR [2].

With `C[C@@H](CO)NC(=O)c1cc(-c2ccc(C(F)(F)F)nc2)nn(-c2cc(F)cc(Cl)c2)c1=O` [Example 2, 2-(3-Chloro-5-fluorophenyl)-N-[(2S)-1-hydroxypropan-2-yl]-3-oxo-6-[6-(trifluoromethyl)pyridin-3-yl]-2,3-dihydropyridazine-4-carboxamide], the IC50 against AHR [1] turned out to be 23.5 nM; on AHR [2], 36.8 nM.

With `C[C@@H](CO)NC(=O)c1cc(-c2ccc(C(F)(F)F)nc2)nn(-c2cccc(Cl)c2)c1=O` [Example 4, 2-(3-Chlorophenyl)-N-[(2S)-1-hydroxypropan-2-yl]-3-oxo-6-[6-(trifluoromethyl)pyridin-3-yl]-2,3-dihydropyridazine-4-carboxamide], the IC50 was found to be 128 nM against AHR [1] and 222 nM on AHR [2].

With `C[C@@H](CO)NC(=O)c1cc(-c2ccc(C(F)(F)F)nc2)nn(-c2ccccc2)c1=O` [Example 5, N-[(2S)-1-Hydroxypropan-2-yl]-3-oxo-2-phenyl-6-[6-(trifluoromethyl)pyridin-3-yl]-2,3-dihydropyridazine-4-carboxamide], the IC50 at AHR [1] is 163 nM; at AHR [2], 281 nM.

In the case of `O=C(N[C@H]1CCC[C@@H]1O)c1cc(-c2ccc(C(F)(F)F)nc2)nn(-c2cccc(F)c2)c1=O` [Example 6, 2-(3-Fluorophenyl)-N-[(1S,2S)-2-hydroxycyclopentyl]-3-oxo-6-[6-(trifluoromethyl)pyridin-3-yl]-2,3-dihydropyridazine-4-carboxamide], the IC50 at AHR [1] stood at 13.4 nM; on AHR [2] it was 8.32 nM.

Regarding `C[C@@H](NC(=O)c1cc(-c2ccc(C(F)(F)F)nc2)nn(-c2cccc(F)c2)c1=O)C(C)(C)O` [Example 7, 2-(3-Fluorophenyl)-N-[(2R)-3-hydroxy-3-methylbutan-2-yl]-3-oxo-6-[6-(trifluoromethyl)pyridin-3-yl]-2,3-dihydropyridazine-4-carboxamide], the IC50 was found to be 25.8 nM on AHR [1] and 48.1 nM at AHR [2].

Consider `O=C(N[C@H]1CCC[C@H]1O)c1cc(-c2ccc(C(F)(F)F)nc2)nn(-c2cccc(F)c2)c1=O` [Example 8, 2-(3-Fluorophenyl)-N-[(1S,2R)-2-hydroxycyclopentyl]-3-oxo-6-[6-(trifluoromethyl)pyridin-3-yl]-2,3-dihydropyridazine-4-carboxamide], for which the IC50 came out at 6.28 nM at AHR [1] and 10.3 nM at AHR [2].

Consider `C[C@H](NC(=O)c1cc(-c2ccc(C(F)(F)F)nc2)nn(-c2cccc(F)c2)c1=O)C(C)(C)O` [Example 9, 2-(3-Fluorophenyl)-N-[(2S)-3-hydroxy-3-methylbutan-2-yl]-3-oxo-6-[6-(trifluoromethyl)pyridin-3-yl]-2,3-dihydropyridazine-4-carboxamide], for which the half-inhibitory concentration (IC50) was found to be 16.2 nM on AHR [1] and 25.3 nM at AHR [2].

As to `CC(C)(O)CNC(=O)c1cc(-c2ccc(C(F)(F)F)nc2)nn(-c2cccc(F)c2)c1=O` [Example 10, 2-(3-Fluorophenyl)-N-(2-hydroxy-2-methylpropyl)-3-oxo-6-[6-(trifluoromethyl)pyridin-3-yl]-2,3-dihydropyridazine-4-carboxamide], the results for the IC50 against AHR [1] and at AHR [2] were 73.2 nM and 110 nM, respectively.

As for `C[C@@H](CO)NC(=O)c1cc(-c2cnc(C(F)(F)F)nc2)nn(-c2cccc(F)c2)c1=O` [Example 11, 2-(3-Fluorophenyl)-N-[(2S)-1-hydroxypropan-2-yl]-3-oxo-6-[2-(trifluoromethyl)pyrimidin-5-yl]-2,3-dihydropyridazine-4-carboxamide], the IC50 at AHR [1] is 495 nM; at AHR [2], 326 nM.

On to `C[C@@H](CO)NC(=O)c1cc(-c2ccc(C(F)F)nc2)nn(-c2cccc(F)c2)c1=O` [Example 13, 6-[6-(Difluoromethyl)pyridin-3-yl]-2-(3-fluorophenyl)-N-[(2S)-1-hydroxypropan-2-yl]-3-oxo-2,3-dihydropyridazine-4-carboxamide], for which the IC50 at AHR [1] amounted to 157 nM; on AHR [2], 198 nM.

For `C[C@@H](CO)NC(=O)c1cc(-c2ccc(C(F)(F)F)nc2)nn(-c2cccc(F)c2)c1=O` [Example 18, 2-(3-Fluorophenyl)-N-[(2S)-1-hydroxypropan-2-yl]-3-oxo-6-[6-(trifluoromethyl)pyridin-3-yl]-2,3-dihydropyridazine-4-carboxamide], the half-inhibitory concentration (IC50) is 33.8 nM against AHR [1] and 31.4 nM on AHR [2].

Take `C[C@@H](NC(=O)c1cc(-c2ccc(N(C)C)nc2)nn(-c2cccc(F)c2)c1=O)C(C)(C)O` [Example 19, 6-[6-(Dimethylamino)pyridin-3-yl]-2-(3-fluorophenyl)-N-[(2R)-3-hydroxy-3-methylbutan-2-yl]-3-oxo-2,3-dihydropyridazine-4-carboxamide]: the IC50 against AHR [1] stood at 91.9 nM; at AHR [2], 147 nM.

Take `COc1ccc(-c2cc(C(=O)N[C@@H](C)CO)c(=O)n(-c3cccc(F)c3)n2)cn1` [Example 21, 2-(3-Fluorophenyl)-N-[(2S)-1-hydroxypropan-2-yl]-6-(6-methoxypyridin-3-yl)-3-oxo-2,3-dihydropyridazine-4-carboxamide]: the IC50 amounted to 128 nM on AHR [1] and 440 nM at AHR [2].

For the molecule `N#C[C@@H](CO)NC(=O)c1cc(-c2ccc(C(F)(F)F)nc2)nn(-c2cccc(F)c2)c1=O` [Example 39, N-[(1S)-1-Cyano-2-hydroxyethyl]-2-(3-fluorophenyl)-3-oxo-6-[6-(trifluoromethyl)pyridin-3-yl]-2,3-dihydropyridazine-4-carboxamide], at AHR [1], the IC50 was 22.8 nM.

In turn, `O=C(N[C@H]1COCC[C@H]1O)c1cc(-c2ccc(C(F)(F)F)nc2)nn(-c2cccc(F)c2)c1=O` [Example 40, 1,5-anhydro-2,4-dideoxy-2-[({2-(3-fluorophenyl)-3-oxo-6-[6-(trifluoromethyl)pyridin-3-yl]-2,3-dihydropyridazin-4-yl}carbonyl)amino]-D-erythro-pentitol] yielded an IC50 at AHR [1] of 32.8 nM.

As to `C[C@@H](CO)NC(=O)c1cc(-c2ccc(C(F)(F)F)cn2)nn(-c2cc(F)cc(F)c2)c1=O` [Example 41, 2-(3,5-Difluorophenyl)-N-[(2S)-1-hydroxypropan-2-yl]-3-oxo-6-[5-(trifluoromethyl)pyridin-2-yl]-2,3-dihydropyridazine-4-carboxamide], at AHR [1], the IC50 stood at 96.5 nM.

On to `C[C@@H](CO)NC(=O)c1cc(-c2ccc(C(F)(F)F)cn2)nn(-c2ccccc2)c1=O` [Example 42, N-[(2S)-1-Hydroxypropan-2-yl]-3-oxo-2-phenyl-6-[5-(trifluoromethyl)pyridin-2-yl]-2,3-dihydropyridazine-4-carboxamide], for which 386 nM corresponded to half-maximal inhibition on AHR [1] (IC50).

On AHR [1], `C[C@@H](CO)NC(=O)c1cc(-c2ccc(C(F)(F)F)cn2)nn(-c2ccc(F)c(F)c2)c1=O` [Example 43, 2-(3,4-Difluorophenyl)-N-[(2S)-1-hydroxypropan-2-yl]-3-oxo-6-[5-(trifluoromethyl)pyridin-2-yl]-2,3-dihydropyridazine-4-carboxamide] gave an IC50 of 902 nM.
